According to US20260167654A1, “PLANT CELL WALL-DISSOLVING AGENT” (Kanazawa University, priority 2022, published 2026):

Assays:
[1] = State of the zwitterions at 25° C.; assay type: physicochemical; settings: room temperature (25° C.)
Procedure: C1imC2OE3C (R^1═CH3, A=imidazolium cation, R^3═CH2CH2, n=3, and B=—COO^−) obtained in Synthesis Example 1 and OE2imC2OE3C(R^1═H3C(OCH2CH2)2, A=imidazolium cation, R^3═CH2CH2, n=3, and B=—COO^−) obtained in Synthesis Example 2 were both liquid at room temperature (25° C.).

[2] = Cellulose solubility (cellulose added in 1 wt % steps, heating and stirring 1 hour, visual); assay type: physicochemical
Procedure: The cellulose solubility of C1imC2OE3C obtained in Synthesis Example 1, OE2imC2OE3C obtained in Synthesis Example 2, and OE2imC3C (R^1═H3C(OCH2CH2)2, A=imidazolium cation, B=—COO^−, and n=0 (a compound having no oxyalkylene structure between the cationic and anionic moieties; the compound described in Non-Patent Literature 2)) as a comparative example was measured. […] The concentration at which cellulose dissolution was confirmed was visually measured.
Thus, when heating to 80° C., a stirrer rotated in C1imC2P and started to rotate smoothly at 120° C. Accordingly, a cellulose solubility experiment was performed at 120° C. Avicel was added in increments of 1 wt %, and when dissolved over 1 hour, additional Avicel was added in increments of 1 wt %. As a result of the experiment, C1imC2P dissolved 4 wt % Avicel.

[3] = Viscosity measurement (Brookfield viscometer, CPE52 spindle); assay type: physicochemical
Procedure: The viscometer used was Brookfield LVDV2TCP with a CPE52 spindle, or Brookfield RVDV2T with a CPE52 spindle.
C1imC2OE3C obtained in Synthesis Example 1 and OE2imC2OE3C obtained in Synthesis Example 2 were measured for viscosity at 80° C. The viscometer used was Brookfield LVDV2TCP with a CPE52 spindle. The viscometer was heated to 80° C. by passing warm water therethrough, and the viscosity of the samples was measured.

[4] = TG-DTA pyrolysis temperature (weight loss on heating at 10° C./min); assay type: physicochemical
Procedure: Experimental method: Under N2 atmosphere, the temperature was increased to 500° C. at a rate of 10° C./min starting at room temperature. The pyrolysis point was evaluated at the intersection of the tangent lines between the steady state and the decomposition.
C1imC2OE3C obtained in Synthesis Example 1 was heated at a rate of 10° C./min, and the temperature at which the weight loss occurred (pyrolysis temperature) was measured. As a result, this compound was thermally decomposed at about 249° C. and was stable up to 249° C.

[5] = Differential scanning calorimetry; assay type: physicochemical
Procedure: Experimental method: Under N2 atmosphere, liquid nitrogen was used during cooling. After the temperature was increased at a rate of 10° C./min to 20° C. below the pyrolysis point starting at 25° C., two sets of “cooling to −100° C. at a rate of −10° C./min→heating to 20° C. below the pyrolysis point at a rate of 10° C./min” were repeated (holding time: 5 minutes for each stage), followed by cooling down to 25° C.
C1imC2OE3C obtained in Synthesis Example 1 was subjected to differential scanning calorimetry.

Kluyveromyces marxianus = experiment: Toxicity to yeast (OD600 of culture in liquid medium); assay type: cell-based; settings: culturing at 50° C., concentration and time of the value not stated
Procedure: The toxicity of C1imC2P to yeast was examined. The yeast used was Kluyveromyces marxianus. C1imC2P was added to a liquid medium at concentrations of 0 mol/L, 0.01 mol/L, 0.05 mol/L, 0.1 mol/L, 0.5 mol/L and 1.0 mol/L respectively. This was inoculated with bacteria, and while culturing at 50° C., OD600 was measured with a plate reader 0, 2, 4, and 6 hours later. OD600 indicates the density of bacterial cells. Further, relative OD600 is a relative parameter when the control is 1.00. A higher value of relative OD600 indicates a lower toxicity of the zwitterion. The relative OD600 of C1imC2P was 0.77, indicating low toxicity.

SMILES	State at 25° C. [1]	Cellulose solubility ([2]; 100° C.) [wt %]	Cellulose solubility ([2]; 120° C.) [wt %]	Viscosity at 80° C. [3]	stable (does not decompose) up to temperature [4]	pyrolysis temperature (temperature at which the weight loss occurred) ([4]; heated at a rate of 10° C./min)	did not change / in a liquid state from room temperature up to temperature [5]	Cellulose solubility (Avicel dissolved) ([2]; 120° C., Avicel added in increments of 1 wt %, 1 hour each) [wt %]	relative OD600 (control is 1.00) (Kluyveromyces marxianus)	Viscosity (in words) ([3]; 100 wt % zwitterion, room temperature (25° C.))
COCCOCC[n+]1ccn(CCOCCOCCOCCC(=O)[O-])c1 [OE2imC2OE3C]	liquid	11	11	810 mPa · s						
COCCOCCn1cc[n+](CCCC(=O)[O-])c1 [OE2imC3C, reference compound]	solid	6	10	940 mPa · s						
C[n+]1ccn(CCOCCOCCOCCC(=O)[O-])c1 [Zwitterion C1imC2OE3C]	liquid	11	14	2,500 mPa · s	up to 249 °C	about 249 °C	around 250 °C			
C[n+]1ccn(CCOP(=O)([O-])O)c1 [Zwitterion C1imC2P]	liquid							4	0.77	very high viscosity
